# Test results: patent US9102932B2, “Orthogonal translation components for the in vivo incorporation of unnatural amino acids” (The Scripps Research Institute, priority 2004, dated 2015)
# Legend:
# [1] = Photodecaging of O-(2-nitrobenzyl)-L-tyrosine by irradiation at 365 nm, LC/MS; assay type: physicochemical
# Protocol: FIG. 9 provides concentration curve assays illustrating the experimentally observed photodecaging (photoactivation) of the caged tyrosine molecule O-(2-nitrobenzyl)-L-tyrosine. Photodecaging of O-(2-nitrobenzyl)-L-tyrosine was illustrated by irradiation of a 0.2 mM amino acid solution in water using a handheld UV lamp (365 nm at 10 mm distance). Aliquots were taken at specific time points and analyzed by LC/MS. The concentrations of O-(2-nitrobenzyl)-L-tyrosine (squares) and the corresponding decaged species (circles) are shown.
# Irradiation of O-(2-nitrobenzyl)-L-tyrosine (synthesized from L-tyrosine as described in Miller et al., Neuron 1998, 20, 619) at 365 nm induces cleavage of the benzylic CO-bond and rapid formation of the decaged amino acid (t1/2=4 min, see supporting information), as illustrated schematically in FIG. 8.
# Photodecaging of O-(2-nitrobenzyl)-L-tyrosine can be experimentally observed, as illustrated in the experimental results shown in FIG. 9. As shown in this figure, the photodecaging of O-(2-nitrobenzyl)-L-tyrosine was studied by irradiation of a 0.2 mM solution in water (one well of a six-well plate) using a handheld UV lamp (365 nm at 10 mm distance). Aliquots were taken at specific time points and analyzed by LC/MS. 50% decaging was achieved after approximately four minutes.
# [2] = test system: Z domain protein gene with amber codon at seventh position; assay: Expression of amber mutant Z domain protein with unnatural amino acid, SDS-PAGE and MALDI-TOF MS; assay type: cell-based, E. coli
# Protocol: To confirm that the observed phenotype is caused by the site-specific incorporation of p-ethylthiocarbonyl-L-phenylalanine by the mutRNACUA-mutTyrRS pair, an amber codon was substituted for the seventh position (Tyr) in the gene encoding the Z domain protein (Nilsson et al., Protein Eng. 1987, 1, 107-113) fused to a C-terminal His6 tag. Protein was expressed in the presence or absence of 1 mM p-ethylthiocarbonyl-L-phenylalanine and purified by Ni-NTA chromatography. […]
# Additional evidence for the site specific incorporation of p-ethylthiocarbonyl-L-phenylalanine was obtained by matrix-assisted laser desorption/ionization time-of-flight mass spectrometry (MALDI-TOF MS). In addition to the observation of an experimental average mass of 8006 Da for the intact Tyr p-ethylthiocarbonyl-L-phenylalanine protein (MTheoretical=8002 Da, see, FIG. 16), a minor peak corresponding to the mutant protein without the first methionine moiety in acetylated form (MExperimental=7913 Da vs. MTheoretical=7913 Da) and a major peak corresponding to the mutant protein without the first methionine moiety (MExperimental=7871 Da vs. MTheoretical=7871 Da) were also detected (FIG. 16). Another major peak of 7828 Da was present that corresponds to Z domain protein containing a free carboxylic acid group instead of a thioester moiety at position 7, which has a calculated mass of 7827 Da in its protonated form. […]
# [3] = test system: human superoxide dismutase bearing amber codon at position 33 (hSOD-33TAG-His6); assay: Expression of hSOD-33TAG-His6 in yeast with mutant E. coli leucyl-tRNA synthetases, SDS-PAGE; assay type: cell-based; conditions: yeast host cells
# Source text: To increase hydrolytic activity towards leucine, residues T252 and V338 in the E. coli synthetase editing domain were exchanged to alanine by Quikchange mutagenesis in order to enlarge the binding pocket (see, FIG. 6A). […] High selectivity of this mutant was further confirmed by MALDI TOF MS of hSOD-33TAG-His6.
# To evolve a more efficient oNBS translation system, the selected clone 3H11 synthetase was diversified by error prone PCR, again using three different mutagenicities, to introduce one, two or five mutations per gene, yielding an overall diversity of 1×10^7 clones. The positions in the leucyl-tRNA-synthetase enzyme that were targeted for randomization were M40, L41, Y499, Y527 and H537. The protocols used herein follow the general methodologies described in the art, e.g., Wu et al., Journal of the American Chemical Society 126:14306-14307 (2004); and International Application No. PCT/US 2005/034002, filed Sep. 21, 2005, by Deiters et al.
# Sequencing of the G2-6 clone identified five additional mutations throughout the enzyme in comparison to the initial 3H11 synthetase starting material (positions S31G, T247A, T248S, M617I and V673A). Additional mutations (caused during library construction) found in all clones throughout the library were also observed as follows: H67R, N196T, R262A and S497C. […]
molecule,measurement,setting,value
N[C@@H](Cc1ccc(OCc2ccccc2[N+](=O)[O-])cc1)C(=O)O [O-(2-nitrobenzyl)-L-tyrosine],Decaging,"[1]; after approximately four minutes, 0.2 mM solution in water, handheld UV lamp 365 nm at 10 mm distance",50%
same,half-life at 0.2 mM,"[1]; solution in water under UV irradiation (365 nm), irradiation at 365 nm, read-out: t1/2 of formation of the decaged amino acid",4 min
CC(=O)CC(=O)c1ccc(C[C@H](N)C(=O)O)cc1 [p-(3-oxobutanoyl)-L-phenylalanine],Fidelity for the incorporation,"[2]; MALDI-TOF MS, signal-to-noise ratio >400, evolved mutRNACUA^Tyr-mutTyrRS pair",> 99%
same,Incorporation efficiency compared to tyrosine,"[2]; Z domain protein, seventh position, 1 mM unnatural amino acid, SDS-PAGE",around 30%
"clone 3H11 (protein, o-nitrobenzylcysteine aminoacyl-tRNA synthetase) MEEQYRPEEIESKVQLHWDEKRTFEVTEDESKEKYYCLSWSPYPSGRLHMGHVRNYTIGDVIARYQRMLGKNVLQPIGWDAFGLPAEGAAVKNNTAPAPWTYDNIAYMKNQLKMLGFGYDWSRELATCTPEYYRWEQKFFTELYKKGLVYKKTSAVNWCPNDQTVLANEQVIDGCCWRCDTKVERKEIPQWFIKITAYADELLNDLDKLDHWPDTVKTMQRNWIGRSEGVEITFNVNDYDNTLTVYTTRPDTFMGCTYLAVAAGHPLAQKAAENNPELAAFIDECRNTKVAEAEMATMEKKGVDTGFKAVHPLTGEEIPVWAANFVLMEYGTGAVMAVPGHDQRDYEFASKYGLNIKPVILAADGSEPDLSQQALTEKGVLFNSGEFNGLDHEAAFNAIADKLTAMGVGERKVNYRLRDWGVSRQRYWGAPIPMVTLEDGTVMPTPDDQLPVILPEDVVMDGITSPIKADPEWAKTTVNGMPALRETDTFDTFMESCWIYARYTCPQYKEGMLDSEAANYWLPVDIAIGGIEHAIMGLLYFRFFHKLMRDAGMVNSDEPAKQLLCQGMVLADAFYYVGENGERNWVSPVDAIVERDEKGRIVKAKDAAGHELVYTGMSKMSKSKNNGIDPQVMVERYGADTVRLFMMFASPADMTLEWQESGVEGANRFLKRVWKLVYEHTAKGDVAALNVDALTENQKALRRDVHKTIAKVTDDIGRRQTFNTAIAAIMELMNKLAKAPTDGEQDRALMQEALLAVVRMLNPFTPHICFTLWQELKGEGDIDNAPWPVADEKAMVEDSTLVVVQVNGKVRAKITVPVDATEEQVRERAGQEHLVAKYLDGVTVRKVIYVPGKLLNLVVG",oNBS incorporation efficiency compared to an oNBC amino acid (in words),[3],twofold reduced efficiency
